Laboratory results as given in patent US11254686B1 (Corvus Pharmaceuticals, Inc., priority 2017, dated 2022).

How the values were obtained:
adenosine A2B receptor = adenosine A2B receptor (Homo sapiens (Human), UniProt P29275); assay: Adenosine receptor activity assay (Table 1), A2B activity; format: biochemical; settings: for IC50: read-out: Ave A2B cAMP IC50
adenosine A2A receptor = adenosine A2A receptor (Homo sapiens (Human), UniProt P29274); assay: Adenosine receptor activity assay (Table 1), A2A activity; format: biochemical; settings: read-out: Ave A2A cAMP IC50
Chain of adenosine A2A receptor (P29274 whole entry): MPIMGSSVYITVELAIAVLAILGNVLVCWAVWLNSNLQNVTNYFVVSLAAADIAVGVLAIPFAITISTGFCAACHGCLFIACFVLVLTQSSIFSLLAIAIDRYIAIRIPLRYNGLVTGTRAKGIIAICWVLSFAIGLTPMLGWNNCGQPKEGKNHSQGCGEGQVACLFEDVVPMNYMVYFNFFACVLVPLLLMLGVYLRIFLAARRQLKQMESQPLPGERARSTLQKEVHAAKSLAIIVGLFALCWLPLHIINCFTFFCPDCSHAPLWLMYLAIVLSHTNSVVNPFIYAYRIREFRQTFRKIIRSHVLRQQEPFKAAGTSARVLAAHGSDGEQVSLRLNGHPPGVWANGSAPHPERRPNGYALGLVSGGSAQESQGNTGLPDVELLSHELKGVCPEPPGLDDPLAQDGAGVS

[1] = A2A activity to A2B activity (A2A/A2B)
[2] = A2A activity to the A2B activity, A2A/A2B

Chain of adenosine A2B receptor (P29275 whole entry): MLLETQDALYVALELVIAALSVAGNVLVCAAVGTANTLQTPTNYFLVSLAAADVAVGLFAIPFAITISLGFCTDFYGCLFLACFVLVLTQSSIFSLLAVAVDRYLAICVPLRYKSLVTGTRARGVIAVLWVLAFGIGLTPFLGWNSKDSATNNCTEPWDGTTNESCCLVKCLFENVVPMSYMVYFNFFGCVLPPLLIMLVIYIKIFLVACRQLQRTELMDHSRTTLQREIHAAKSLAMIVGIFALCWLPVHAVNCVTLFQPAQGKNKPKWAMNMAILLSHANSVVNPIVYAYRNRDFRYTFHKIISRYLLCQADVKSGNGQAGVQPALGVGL

Row | Ratio (adenosine A2B receptor; [1]) | IC50 (adenosine A2B receptor) [nM] | IC50 (adenosine A2A receptor) [nM] | Ratio (adenosine A2B receptor; [2]) | SMILES
1 | 39.59 | 100 to 500 | > 500 | – | Cc1cc2nc(N[C@@H](C)c3cccnc3)nc(C(=O)NCC3CCNCC3)c2s1 [Example Z377, (S)-6-Methyl-N-(piperidin-4-ylmethyl)-2-((1-(pyridin-3-yl)ethyl)amino)thieno[3,2-d]pyrimidine-4-carboxamide]
2 | 15.93 | 100 to 500 | > 500 | – | Cc1cc2nc(N[C@@H](C)c3cccnc3)nc(C(=O)NCCN3CCOCC3)c2s1 [Example Z378, (S)-6-Methyl-N-(2-morpholinoethyl)-2-((1-(pyridin-3-yl)ethyl)amino)thieno[3,2-d]pyrimidine-4-carboxamide]
3 | 68.03 | 100 to 500 | > 500 | – | C[C@H](Nc1nc(C(=O)N2CCC(C(=O)O)C2)c2sccc2n1)c1cncc(F)c1 (stereo partly drawn) [Example Z379, 1-(2-(((S)-1-(5-Fluoropyridin-3-yl)ethyl)amino)thieno[3,2-d]pyrimidine-4-carbonyl)pyrrolidine-3-carboxylic acid]
4 | 13.21 | > 500 | > 500 | – | C[C@H](Nc1nc(C(=O)N2CCC(C(=O)O)C2)c2sccc2n1)c1ccccn1 (stereo partly drawn) [Example Z380, 1-(2-(((S)-1-(Pyridin-2-yl)ethyl)amino)thieno[3,2-d]pyrimidine-4-carbonyl)pyrrolidine-3-carboxylic acid]
5 | 47.20 | 10 to 50 | > 500 | – | C[C@H](Nc1nc(C(=O)N2CCNC2)c2sccc2n1)c1cncc(F)c1 [Example Z381, (S)-(2-((1-(5-Fluoropyridin-3-yl)ethyl)amino)thieno[3,2-d]pyrimidin-4-yl)(imidazolidin-1-yl)methanone]
6 | 7.44 | 50 to 100 | > 500 | – | C[C@H](Nc1nc(C(=O)NCCc2ccc(Cl)cc2)c2sccc2n1)c1cncc(F)c1 [Example Z385, (S)—N-(4-Chlorophenethyl)-2-((1-(5-fluoropyridin-3-yl)ethyl)amino)thieno[3,2-d]pyrimidine-4-carboxamide]
7 | 20.10 | 50 to 100 | > 500 | – | Cc1cc2nc(N[C@@H](C)c3cccnc3)nc(C(=O)NC[C@@H]3CCOC3)c2s1 [Example Z387, 6-Methyl-2-(((S)-1-(pyridin-3-yl)ethyl)amino)-N—(((S)-tetrahydrofuran-3-yl)methyl)thieno[3,2-d]pyrimidine-4-carboxamide]
8 | 10.69 | 50 to 100 | > 500 | – | Cc1cc2nc(N[C@@H](C)c3cccnc3)nc(C(=O)NC[C@H]3CCOC3)c2s1 [Example Z388, 6-Methyl-2-(((S)-1-(pyridin-3-yl)ethyl)amino)-N—(((R)-tetrahydrofuran-3-yl)methyl)thieno[3,2-d]pyrimidine-4-carboxamide]
9 | 0.87 | 100 to 500 | 100 to 500 | – | C[C@H](NC(=O)c1nc(N[C@@H](C)c2ccccc2)nc2ccsc12)c1ccccc1 [Example Z394, N—((S)-1-Phenylethyl)-2-(((S)-1-phenylethyl)amino)thieno[3,2-d]pyrimidine-4-carboxamide]
10 | 32.64 | 10 to 50 | 100 to 500 | – | C[C@H](Nc1nc(C(=O)N[C@@H]2CC[C@@H](O)C2)c2sccc2n1)c1cncc(F)c1 [Example Z395, 2-(((S)-1-(5-Fluoropyridin-3-yl)ethyl)amino)-N-((1R,3R)-3-hydroxycyclopentyl)thieno[3,2-d]pyrimidine-4-carboxamide]
11 | 6.83 | > 500 | > 500 | – | C[C@H](Nc1nc(C(=O)N(C)CCc2ccc(O)cc2)c2sccc2n1)c1cncc(F)c1 [Example Z396, (S)-2-((1-(5-Fluoropyridin-3-yl)ethyl)amino)-N-(4-hydroxyphenethyl)-N-methylthieno[3,2-d]pyrimidine-4-carboxamide]
12 | 11.51 | > 500 | > 500 | – | C[C@H](Nc1nc(C(=O)NC2CNC2)c2sccc2n1)c1cncc(F)c1 [Example Z397, (S)—N-(Azetidin-3-yl)-2-((1-(5-fluoropyridin-3-yl)ethyl)amino)thieno[3,2-d]pyrimidine-4-carboxamide]
13 | 2.82 | 100 to 500 | 100 to 500 | – | COc1ccc(Oc2cc(CNC(=O)c3nc(N[C@@H](C)c4cncc(F)c4)nc4ccsc34)ccn2)cc1 [Example Z398, (S)-2-((1-(5-Fluoropyridin-3-yl)ethyl)amino)-N-((2-(4-methoxyphenoxy)pyridin-4-yl)methyl)thieno[3,2-d]pyrimidine-4-carboxamide]
14 | – | 10 to 50 | > 500 | 161.94 | CO[C@@H](C)CNC(=O)c1nc(N[C@@H](C)c2cccnc2)nc2cc(C)sc12 [Example Z399, N—((S)-2-Methoxypropyl)-6-methyl-2-(((S)-1-(pyridin-3-yl)ethyl)amino)thieno[3,2-d]pyrimidine-4-carboxamide]
15 | – | 50 to 100 | > 500 | 12.22 | CO[C@H](C)CNC(=O)c1nc(N[C@@H](C)c2cccnc2)nc2cc(C)sc12 [Example Z400, N—((R)-2-Methoxypropyl)-6-methyl-2-(((S)-1-(pyridin-3-yl)ethyl)amino)thieno[3,2-d]pyrimidine-4-carboxamide]
16 | – | 10 to 50 | 100 to 500 | – | C[C@H](Nc1nc(C(=O)N2CCCC2)c2sccc2n1)c1ccnc(F)c1 [Example Z406, (S)-(2-((1-(2-Fluoropyridin-4-yl)ethyl)amino)thieno[3,2-d]pyrimidin-4-yl)(pyrrolidin-1-yl)methanone]
17 | – | 100 to 500 | > 500 | 8.11 | C[C@H](Nc1nc(C(=O)N2CC[C@H](O)C2)c2sccc2n1)c1ccnc(F)c1 [Example Z407, (2-(((S)-1-(2-Fluoropyridin-4-yl)ethyl)amino)thieno[3,2-d]pyrimidin-4-yl)((S)-3-hydroxypyrrolidin-1-yl)methanone]
18 | – | 50 to 100 | > 500 | 6.69 | C[C@H](Nc1nc(C(=O)N2CC[C@@H](O)C2)c2sccc2n1)c1ccnc(F)c1 [Example Z408, (2-(((S)-1-(2-Fluoropyridin-4-yl)ethyl)amino)thieno[3,2-d]pyrimidin-4-yl)((R)-3-hydroxypyrrolidin-1-yl)methanone]
19 | – | 100 to 500 | > 500 | 4.87 | C[C@H](Nc1nc(C(=O)NCCc2cccc(Oc3ccccc3)c2)c2sccc2n1)c1cncc(F)c1 [Example Z417, (S)-2-((1-(5-Fluoropyridin-3-yl)ethyl)amino)-N-(3-phenoxyphenethyl)thieno[3,2-d]pyrimidine-4-carboxamide]
20 | – | 50 to 100 | 100 to 500 | 5.38 | COc1ccc(CCNC(=O)c2nc(N[C@@H](C)c3cncc(F)c3)nc3ccsc23)cc1 [Example Z420, (S)-2-((1-(5-Fluoropyridin-3-yl)ethyl)amino)-N-(4-methoxyphenethyl)thieno[3,2-d]pyrimidine-4-carboxamide]
21 | – | 100 to 500 | > 500 | 5.22 | COC(=O)c1ccc(CCNC(=O)c2nc(N[C@@H](C)c3cncc(F)c3)nc3ccsc23)cc1 [Example Z423, Methyl (S)-4-(2-(2-((1-(5-fluoropyridin-3-yl)ethyl)amino)thieno[3,2-d]pyrimidine-4-carboxamido)ethyl)benzoate]
